Where a name gives a salt, the structure may show the parent alone.
Experiments:
[1] = test system: HCT116; experiment: efficacy (fitted maximal change in viability relative to DMSO control); higher = less cytotoxic (negative = loss of viability); details: 48 h
[2] = test system: HCT116; experiment: AC50 cell viability (CellTiter-Glo); higher = less potent; details: 48 h
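For AC50 cell viability (CellTiter-Glo) in this document: HCT116 colorectal carcinoma cells screened at five concentrations per compound, luminescent viability scaled between DMSO wells and empty wells on each plate, curves fitted per compound.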
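For efficacy (fitted maximal change in viability relative to DMSO control) in this document: Luminescence-based viability readout, five doses per compound, normalized against on-plate DMSO and empty-well controls, followed by dose-response curve fitting for every drug.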

For `CC(C)CC(=O)Nc1n[nH]c2c1CN(C(=O)C1CCN(C)CC1)C2(C)C`, the efficacy [1] was -68.7% and the AC50 cell viability [2] was 0.186 µM.

`CC(C)Oc1ccc(C(=O)N[C@H](CNC(=O)CN(C)C)Cc2ccc(-c3cn4cccc([C@H](C)O)c4n3)cc2)cc1Cl` gave an efficacy [1] of -127% and an AC50 cell viability [2] of 4.17 µM.

In the case of `Cc1ccc(NC(=O)c2ccc(CN3CCNCC3)cc2)cc1Nc1nccc(-c2cccnc2)n1`, the efficacy [1] is reported as -93.9% and the AC50 cell viability [2] is reported as 18.6 µM.

Compound `CC1=C2N=C([NH]C2=CC(=C1)N3CCOCC3)\C4=C(NC[C@@H](O)C5=CC=CC(=C5)Cl)\C=C/NC4=O` has an efficacy [1] of -93.9% and an AC50 cell viability [2] of 6.61 µM.

`Cc1c(NC(=O)OCC2COCCN2)cn2ncnc(Nc3ccc4c(cnn4Cc4cccc(F)c4)c3)c12` (centres undefined) was tested, and the efficacy [1] was -91.3% and the AC50 cell viability [2] was 26.3 µM.

Compound `CCc1ccc2nc(Nc3cc(Cc4ccccc4)nc(N[C@H]4CC[C@H](O)CC4)n3)sc2c1` has an efficacy [1] of -65.1% and an AC50 cell viability [2] of 18.6 µM.

Work on `CCN(CC)CCCCNc1nc2cc(Cl)c(Cl)cc2nc1-c1ccc(-c2cccs2)s1` yielded an efficacy [1] of -97.7% and an AC50 cell viability [2] of 23.5 µM.

`CCN(CC)CCCCNc1ncc2c(n1)N(C)C(=O)N(c1c(Cl)c(OC)cc(OC)c1Cl)C2` gave an efficacy [1] of -80.5% and an AC50 cell viability [2] of 11.8 µM.

With `CCNC(=O)C[C@H]1/N=C(/C2=CC=C(Cl)C=C2)C3=CC(=CC=C3[N]4C(=NN=C14)C)OC` the efficacy [1] was -37.7% and the AC50 cell viability [2] was 14.8 µM.

`CCOC1=CC(=CC=C1C/2=N/[C@@](C)(C3=CC=C(Cl)C=C3)[C@](C)(N2C(=O)N4CCN(CC4)CC(=O)N5CCOCC5)C6=CC=C(Cl)C=C6)C(C)(C)C` was tested, and the efficacy [1] was -114% and the AC50 cell viability [2] was 9.17 µM.

For `CN(C)c1ccc(-c2nc3c(N4CCN(CC(=O)Nc5nccs5)CC4)c(Cl)cnc3[nH]2)cc1`, the efficacy [1] was -34.1% and the AC50 cell viability [2] was 0.723 µM.

For `CN1CCN(CC1)C2=CC=C(NC3=NC=C4\C=C(\C#N)C(=O)N(C5CCCC5)C4=N3)C=C2`, the efficacy [1] was -77.1% and the AC50 cell viability [2] was 1.32 µM.

`Cc1cc(Nc2cc(N3CCN(C)CC3)nc(/C=C/c3ccccc3)n2)n[nH]1` was tested, and the efficacy [1] was -99.9% and the AC50 cell viability [2] was 5.9 µM.

Compound `CNC(=O)c1c(F)cccc1Nc1nc(Nc2cc3c(cc2OC)CCN3C(=O)CN(C)C)nc2[nH]ccc12` has an efficacy [1] of -131% and an AC50 cell viability [2] of 5.25 µM.

For `CNC(=O)C1=CC=C(C)C(=C1)N2C(=C/C(=C(/Br)C2=O)OCC3=C(F)C=C(F)C=C3)\C`, the efficacy [1] was -41.4% and the AC50 cell viability [2] was 16.6 µM.

For `CNC(=O)Nc1ccc(-c2nc(N3CC4CCC(C3)O4)c3cnn(C4CCC5(CC4)OCCO5)c3n2)cc1`, the efficacy [1] was -96.3% and the AC50 cell viability [2] was 1.18 µM.

With `CNCc1ccc(C)c(NC(=O)c2ccc(Nc3nc(-c4ccccc4)c4ccccc4n3)cc2)c1` the efficacy [1] was -94.8% and the AC50 cell viability [2] was 18.6 µM.

Compound `CNCCn1c(=O)c2cc(OC)c(OC)cc2c2cnc3cc4c(cc3c21)OCO4` has an efficacy [1] of -80.9% and an AC50 cell viability [2] of 0.0303 µM.

`COc1cc(Oc2ccnc3cc(OC)c(OC)cc23)ccc1NC(=O)NC(C)c1nccs1` (centres undefined) was tested, and the efficacy [1] was -63.5% and the AC50 cell viability [2] was 20.9 µM.

For `COc1cc2ncnc(Oc3cccc(NC(=O)Nc4cc(C(C)(C)C(F)(F)F)on4)c3)c2cc1OC`, the efficacy [1] was -66.5% and the AC50 cell viability [2] was 3.72 µM.

For `COc1ccc(-c2cc(C(O)C3CCCCN3)c3ccccc3n2)cc1` (centres undefined), the efficacy [1] was -90.9% and the AC50 cell viability [2] was 4.68 µM.

With `C[C@@H](Oc1cc(-n2cnc3ccc(CN4CCN(C)CC4)cc32)sc1C(N)=O)c1ccccc1C(F)(F)F` the efficacy [1] was -57.6% and the AC50 cell viability [2] was 0.0468 µM.

`Cc1cc(OCCCc2c3n(c4c(-c5c(C)nn(C)c5C)c(Cl)ccc24)[C@H](C)CN(c2cn(C)c4ccc(C(=O)O)cc24)C3=O)cc(C)c1Cl` gave an efficacy [1] of -93.6% and an AC50 cell viability [2] of 16.6 µM.

`C[C@H](NC(=O)c1sccc1OCc1ccc(Cl)cc1)c1ccccc1` gave an efficacy [1] of -50.9% and an AC50 cell viability [2] of 16.6 µM.

In the case of `Cc1ccc(-c2ccc3ncc4c(c3n2)n(C2CCN(C(=O)[C@H](C)O)CC2)c(=O)n4C)cn1`, the efficacy [1] is reported as -86.9% and the AC50 cell viability [2] is reported as 0.166 µM.

For `Cn1ncc(Cl)c1-c1cc(C(=O)NC(CN)Cc2ccc(F)c(F)c2)oc1Cl` (centres undefined), the efficacy [1] was -117% and the AC50 cell viability [2] was 13.2 µM.

`C[S+]([O-])c1ccc(-c2nc(-c3ccc(F)cc3)c(-c3ccncc3)[nH]2)cc1` (centres undefined) was tested, and the efficacy [1] was -83.2% and the AC50 cell viability [2] was 18.6 µM.

`O=C(/C=C/c1ccc(Cl)cc1)N1CCC2(CC1)CN(Cc1ccc(Cl)c(Cl)c1)C(=O)O2` gave an efficacy [1] of -85.1% and an AC50 cell viability [2] of 23.5 µM.

For `ClC1=C[NH]N=C1C\2NC(=N\C3=C2C(=O)CCC3)/NC4=NC5=CC=CC=C5O4` (centres undefined), the efficacy [1] was -63.3% and the AC50 cell viability [2] was 18.6 µM.

For `O=C(NOCC1CC1)c1ccc(F)c(F)c1Nc1ccc(I)cc1Cl`, the efficacy [1] was -126% and the AC50 cell viability [2] was 4.68 µM.

`N#Cc1ccc(-c2c(-c3nnc[nH]3)sc(N3CCOCC3)c2C#N)c(F)c1` gave an efficacy [1] of -83.5% and an AC50 cell viability [2] of 1.86 µM.

`N#Cc1cccc(-c2c[nH]c3ncnc(N4CCOCC4)c23)c1` gave an efficacy [1] of -40.9% and an AC50 cell viability [2] of 16.6 µM.

`NC1(Cc2ccc(Cl)cc2)CCN(c2ncnc3[nH]ccc23)CC1` gave an efficacy [1] of -95.2% and an AC50 cell viability [2] of 13.2 µM.

Work on `NC1=C(Cl)C(=CC=N1)OC2=C(F)C=C(NC(=O)\C3=C\N\C=C(C3=O)\C4=CC=C(F)C=C4)C=C2` yielded an efficacy [1] of -78.4% and an AC50 cell viability [2] of 16.6 µM.

For `Nc1ccc(C(=O)Nc2cccc(-c3nc(N4CCOCC4)c4oc5ncccc5c4n3)c2)cn1`, the efficacy [1] was -88.1% and the AC50 cell viability [2] was 5.9 µM.

For `Nc1nc(Nc2ccc([S+](N)(=O)[O-])cc2)nn1C(=O)c1c(F)cccc1F`, the efficacy [1] was -65.7% and the AC50 cell viability [2] was 1.66 µM.

Compound `Nc1n[nH]c2nnc(-c3c(-c4ccccc4)nn4ccccc34)cc12` has an efficacy [1] of -41.3% and an AC50 cell viability [2] of 18.6 µM.

Work on `O=C(C1CC1)N1CC[C@@H](Cn2c(-c3ccc(-c4ccc5occc5c4)cc3)nc3cnccc32)C1` yielded an efficacy [1] of -66.1% and an AC50 cell viability [2] of 23.5 µM.

`O=C(NOCC(O)CO)c1ccc(F)c(F)c1Nc1ccc(I)cc1F` (centres undefined) showed an efficacy [1] of -68.6% and an AC50 cell viability [2] of 0.166 µM.

With `OCCn1cc(-c2ccc3c(c2)CC/C3=N\O)c(-c2ccncc2)n1` the efficacy [1] was -55.7% and the AC50 cell viability [2] was 4.68 µM.

For `N#Cc1ccc2c(c1)CN([S+](=O)([O-])c1cccs1)[C@H](Cc1ccccc1)CN2Cc1cnc[nH]1`, the efficacy [1] was -73.3% and the AC50 cell viability [2] was 0.417 µM.

`Cc1ccc(C(=O)Nc2ccc(CN3CCN(C)CC3)c(C(F)(F)F)c2)cc1C#Cc1cnc2cccnn12` [Ponatinib] gave an AC50 cell viability [2] of 1.48 µM.

For `CCC[S+](=O)([O-])Nc1ccc(F)c(C(=O)c2c[nH]c3ncc(-c4ccc(Cl)cc4)cc23)c1F` [Vemurafenib], the efficacy [1] was 9.66%.

In the case of `CC1(C)CCC(=C(\C1)C2=CC=C(Cl)C=C2)/CN3CCN(CC3)C4=CC(=C(C=C4)C(=O)N[S+]([O-])(=O)C5=CC=C(NCC6CCOCC6)C(=C5)[N+]([O-])=O)OC7=CN=C8[NH]C=CC8=C7` [Venetoclax (ABT-199)], the efficacy [1] is reported as -73.3%.

`COc1ccc(CCN(C)CCCC(C#N)(c2ccc(OC)c(OC)c2)C(C)C)cc1OC` (centres undefined) [Verapamil] gave an AC50 cell viability [2] of 18.6 µM.

In the case of `CCCCOc1nc(N)c2c(n1)N(Cc1cccc(CN3CCCC3)c1)CC(=O)N2` [Vesatolimod], the efficacy [1] is reported as -47.6%.

For `COc1ccc(C(=O)N2CCN(c3ccc4c(c3)CCC(=O)N4)CC2)cc1OC` [Vesnarinone], the efficacy [1] was -21.4%.

With `Nc1ncnc2c1ncn2[C@@H]1O[C@H](CO)[C@@H](O)[C@@H]1O` [Vidarabine] the efficacy [1] was -11.4%.

`C[S+](=O)([O-])c1ccc(C(=O)Nc2ccc(Cl)c(-c3ccccn3)c2)c(Cl)c1` [Vismodegib] gave an efficacy [1] of -23.8%.

In the case of `CCOC(=O)N[C@@H]1CC[C@@H]2[C@@H](C1)C[C@H]1C(=O)O[C@H](C)[C@H]1[C@H]2/C=C/c1ccc(-c2cccc(F)c2)cn1` [Vorapaxar], the efficacy [1] is reported as -40.6%.

`C[C@@H](c1ncncc1F)[C@](O)(Cn1cncn1)c1ccc(F)cc1F` [Voriconazole] showed an efficacy [1] of -12.1%.

For `O=C(CCCCCCC(=O)Nc1ccccc1)NO` [Vorinostat (SAHA)], the efficacy [1] was -81%.

Work on `CN[C@@H]1CN(C[C@H]1OC)C2=NC3=C(C=C2)C(=O)C(=C\N3C4=NC=CS4)/C(O)=O` [Vosaroxin] yielded an efficacy [1] of -17.8%.

In the case of `Cc1c(F)ccc(C(=O)Nc2cc([N+](=O)[O-])ccc2N2CCN(C)CC2)c1Cl` [WDR5-C47], the efficacy [1] is reported as -7.44%.

`COc1cc2ncnc(Nc3cc(Br)c(O)c(Br)c3)c2cc1OC` [WHI-P97] gave an efficacy [1] of -37.8%.

Compound `C[C@H](NC(=O)/C(C#N)=C/c1cccc(Br)n1)c1ccccc1` [WP-1066] has an efficacy [1] of -83.5%.

Compound `Cc1cc(-c2ccc(CC(=O)Nc3ccc(-c4cccnc4)cc3)cc2)ccn1` [Wnt-C59] has an efficacy [1] of -33.8%.

`O=C(Nc1ccc(-c2ccnc(Nc3ccc(N4CCOCC4)cc3)n2)cc1)C1CCCN1` (centres undefined) [XL-019] showed an efficacy [1] of -19.1%.

In the case of `Cc1ccc([S+](=O)([O-])Nc2nc3ccccc3nc2Nc2ccc3nsnc3c2)cc1` [XL-147], the efficacy [1] is reported as -12%.

Work on `CC1=CC(=CC(=C1C\C2=N\CCN2)C)C(C)(C)C` [Xylometazoline hydrochloride] yielded an efficacy [1] of -32.9%.

With `N#Cc1ccc(N(Cc2ccc(Br)cc2)n2cnnc2)cc1` [YM-511] the efficacy [1] was -14.3%.

For `COC(=O)[C@@H]1[C@H]2C[C@H]3c4[nH]c5ccccc5c4CCN3C[C@@H]2CC[C@@H]1O` [Yohimbine], the efficacy [1] was -8.81%.

Work on `CC(C(=O)O)c1ccc2c(c1)CC(=O)c1ccccc1S2` (centres undefined) [Zaltoprofen] yielded an efficacy [1] of 8.02%.

With `OC[C@H]1O[C@H]([C@H](O)[C@@H]1O)N2/C=C\C=N/C2=O` [Zebularine] the efficacy [1] was -11.7%.

Compound `CC(c1cc2ccccc2s1)N(O)C(N)=O` (centres undefined) [Zileuton] has an efficacy [1] of -26.8%.

With `CC1=C(/C=C/C(C)=C/C=C/C(C)=C/C=C/C=C(C)/C=C/C=C(C)/C=C/C2=C(C)CCCC2(C)C)C(C)(C)CCC1` [beta-Carotene] the efficacy [1] was -21.3%.

With `CCCCn1c(=O)n(Cc2ccccc2F)c(=O)c2nc(Cc3ccc(NC(C)=O)cc3)[nH]c21` [cPEPCK Inhibitor] the efficacy [1] was -8.36%.

With `CC/1=C2/N(C(=O)C(=C1)/NC3=CC(=NC=N3)N)C4(CCCCC4)NC2=O` [eFT508] the efficacy [1] was -7.54%.

Source: the supplement of paper PMC10290057
